Assay [1] relates to newly emerged honeybees (nurse bees) poisoned by carbaryl. In words: Curcumin feeding of newly emerged (nurse) honeybees topically poisoned by carbaryl. Format: in vivo. To be noted: for mortality rate: nurse bees, indoor feeding. The procedure: (§1) […] These experiments were performed separately on newly emerged honeybees and foragers. While 0.063 ug of an insecticide was administered to the chest of each newly emerged honeybee, 0.11 ug of the insecticide was applied to each forager bee. The intoxicated honeybees were exposed to carbaryl and then fed supplementary food. While the control group consumed only sugar syrup, the experimental group consumed supplementary food containing curcumin. All honeybee groups were fed for 48 hours under controlled laboratory conditions.

Assay [2] concerns honeybee colonies used for melon pollination. In words: Field experiment in melon greenhouses: colony strength factors. Format: in vivo, honeybees. The procedure: The impact observed when adding 100 ppm of curcumin to greenhouses for growing melons was assessed. Thirty greenhouses owned by three farmers were used in this study. While one group of honeybees was given a solution supplemented with 100 ppm of curcumin (CU100), the control hives were given only 50% sugar syrup. Colony strength factors were measured every 10 days.

Assay [3] deals with honeybees (Apis mellifera) chronically exposed to carbaryl. Description: Long-term indoor feeding with chronic oral exposure to carbaryl. The class given is in vivo. The note with it: 100 ppm curcumin; for mortality rate of honeybees: 10 days. The source says:
FIG. 4 is a graph of a Kaplan-Meier survival curve for test honeybees (Apis mellifera) chronically exposed to 2.5 and 5 ppm of carbaryl through oral exposure.
FIGS. 5A and 5B show graphs of the mortality rate of honeybees for 10 days after being chronically exposed to 2.5 ppm (5A) and 5 ppm (5B) of carbaryl.

Assay [4] relates to foragers (field bees) poisoned by carbaryl. In words: Curcumin feeding of forager (field) bees topically poisoned by carbaryl. The class given is in vivo, honeybees. The note with it: indoor feeding. The protocol: as §1
The subject of assay [5] is detoxification enzymes (oxidases) of honeybees. In words: Gene expression / activity of detoxification enzymes 24 hours after carbaryl exposure. Format: in vivo. To be noted: 200 ppm curcumin. The procedure:
FIGS. 8 and 9 show graphs for explaining gene expression analysis of detoxification enzymes in SU (50% sugar syrup), CU (50% sugar syrup +200 ppm of curcumin), and the control group (ACET, exposed to only 2 ul of acetone and given sugar), 24 hours after being exposed to carbaryl.

[6] abbreviates: 100 ppm curcumin, melon greenhouses at Seongju, long-term.

These results are taken from patent publication US20250205177A1, “HONEYBEE ANTIDOTE COMPOSITION” (priority 2023, published 2025).

SMILES strings stand for the structures.

In the case of `COc1cc(/C=C/C(=O)CC(=O)/C=C/c2ccc(O)c(OC)c2)ccc1O` [curcumin], in assay [1] (curcumin at varying concentrations after carbaryl exposure), the “mortality rate of nurse bees compared with control (in words)” value is “noticeable reduction”. In addition, the mortality rate in assay [1] (50 ppm curcumin, reduced from 80) turned out to be 50; in assay [1] (90 ppm curcumin, from 80) it was 33; in assay [1] (100 ppm curcumin, reduced from 80), 24; in assay [1] (110 ppm curcumin, from 80), 34; in assay [4] (50 ppm curcumin, reduced from 35), 24; in assay [4] (90 ppm curcumin, from 35) it was 24. Also, the mortality rate came to 18 in assay [4] (100 ppm curcumin, reduced from 35) and 24 in assay [4] (110 ppm curcumin, from 35). Besides, the “rate of hive weight reduction” value in assay [2] (100 ppm curcumin compared with only sucrose solution) is reported as “lower”. Further, in assay [2] (setting [6]), the “number of both adult and larval honeybees” value is recorded as “tended to increase”. In addition, the “weight of honey storage (honey)” value in assay [2] (setting [6]) was “no change”. Besides, the “activities of honeybees in outdoor experiments” value in assay [2] (group treated with 100 ppm curcumin) is “excellent”. The “survival rate of honeybees in exposure experiments to carbaryl” value in assay [3] (Kaplan-Meier, 2.5 and 5 ppm carbaryl oral) is “highest”. Besides, the “mortality rate of honeybees” value in assay [3] (chronic exposure to 2.5 ppm carbaryl, control 38%) worked out at 21%; in assay [3] (chronic exposure to 5 ppm carbaryl, control 78%), 55%. Further, the “activity of the detoxification enzymes” value in assay [5] was “even higher level”.
